The record followed here is ChEMBL document CHEMBL1134693, “Synthesis and comparative molecular field analysis (CoMFA) of symmetric and nonsymmetric cyclic sulfamide HIV-1 protease inhibitors” (J Med Chem, 2001).

Experiment [1] has as its target T1, Human immunodeficiency virus type 1 protease (Human immunodeficiency virus 1, UniProt Q72874). Kind of experiment: Inhibition of recombinant HIV-1 protease measured by fluorometric assay.
Experiment [2] addresses T1, Human immunodeficiency virus type 1 protease. The experiment can be described thus: Inhibition of HIV-1 protease by fluorometric assay.

Molecules are shown by their SMILES.

Turning to `O=C(CN1[C@@H](COc2ccccc2)[C@@H](O)[C@H](O)[C@H](COc2ccccc2)N(Cc2cccc(I)c2)S1(=O)=O)Nc1nccs1`, the inhibition constant Ki in experiment [1] was 510 nM; in experiment [2], 513 nM.

Take `CNC(=O)CN1[C@@H](COc2ccccc2)[C@@H](O)[C@H](O)[C@H](COc2ccccc2)N(CC(=O)NC)S1(=O)=O`: the Ki in experiment [1] is 25000 nM; in experiment [2], 25100 nM.

Regarding `O=C(CN1[C@@H](COc2ccccc2)[C@@H](O)[C@H](O)[C@H](COc2ccccc2)N(Cc2ccccc2)S1(=O)=O)Nc1nccs1`, the inhibition constant Ki in experiment [1] was 350 nM; in experiment [2], 347 nM.

As to `CN1[C@@H](COc2ccccc2)[C@@H](O)[C@H](O)[C@H](COc2ccccc2)N(C)S1(=O)=O`, the Ki in experiment [1] was 710 nM; in experiment [2] it was 708 nM.

In the case of `O=S1(=O)N(Cc2ccc(CO)cc2)[C@@H](COc2ccccc2)[C@@H](O)[C@H](O)[C@H](COc2ccccc2)N1Cc1ccc(CO)cc1`, the inhibition constant Ki was 3.1 nM in experiment [1] and 3.09 nM in experiment [2].

Regarding `O=C(CN1[C@@H](COc2ccccc2)[C@@H](O)[C@H](O)[C@H](COc2ccccc2)N(Cc2cccc(-c3cccs3)c2)S1(=O)=O)Nc1nccs1`, the inhibitory constant (Ki) in experiment [1] was 140 nM; in experiment [2] it was 141 nM.

With `O=S1(=O)N(Cc2cccc(CCO)c2)[C@@H](COc2ccccc2)[C@@H](O)[C@H](O)[C@H](COc2ccccc2)N1Cc1cccc(CCO)c1`, the inhibition constant (Ki) in experiment [1] was 43 nM; in experiment [2] it was 42.7 nM.

In the case of `O=S1(=O)N(Cc2ccccc2)[C@H](COc2ccccc2)[C@H](O)[C@@H](O)[C@@H](COc2ccccc2)N1Cc1ccccc1`, the Ki in experiment [1] is 23 nM; in experiment [2] it was 22.9 nM.

For the molecule `O=S1(=O)N(Cc2ccccc2)[C@@H](COc2ccccc2)[C@@H](O)[C@H](O)[C@H](COc2ccccc2)N1Cc1cccc(-c2cccs2)c1`, the inhibition constant (Ki) in experiment [1] is 86 nM; in experiment [2], 85.1 nM.

In the case of `COC(Cc1cccc(CN2[C@@H](COc3ccccc3)[C@@H](O)[C@H](O)[C@H](COc3ccccc3)N(Cc3cccc(CC(OC)OC)c3)S2(=O)=O)c1)OC`, the inhibition constant Ki in experiment [1] was 540 nM; in experiment [2], 537 nM.

`CNC(=O)CN1[C@@H](COc2ccccc2)[C@@H](O)[C@H](O)[C@H](COc2ccccc2)N(Cc2ccccc2)S1(=O)=O`: the Ki in experiment [1] is 1400 nM; in experiment [2] it was 1410 nM.

As for `CC(=O)c1cccc(CN2[C@@H](COc3ccccc3)[C@@H](O)[C@H](O)[C@H](COc3ccccc3)N(Cc3cccc(C(C)=O)c3)S2(=O)=O)c1`, the Ki in experiment [1] was 59 nM; in experiment [2], 58.9 nM.

Consider `O=S1(=O)N(Cc2cccc(-c3cccs3)c2)[C@@H](COc2ccccc2)[C@@H](O)[C@H](O)[C@H](COc2ccccc2)N1Cc1cccc(-c2cccs2)c1`, for which the results for the inhibition constant Ki in experiment [1] and in experiment [2] were 2200 nM and 2190 nM, respectively.

Regarding `COC(=O)c1ccc(CN2[C@@H](COc3ccccc3)[C@@H](O)[C@H](O)[C@H](COc3ccccc3)N(Cc3ccc(C(=O)OC)cc3)S2(=O)=O)cc1`, the values for the Ki in experiment [1] and in experiment [2] were 84 nM and 83.2 nM, respectively.

As to `O=S1(=O)N(Cc2ccc(-c3cccs3)cc2)[C@@H](COc2ccccc2)[C@@H](O)[C@H](O)[C@H](COc2ccccc2)N1Cc1ccc(-c2cccs2)cc1`, the inhibitory constant (Ki) in experiment [1] was 920 nM; in experiment [2], 912 nM.

In the case of `O=S1(=O)N(Cc2ccccc2)[C@@H](COc2ccccc2)[C@@H](O)[C@H](O)[C@H](COc2ccccc2)N1Cc1ccc(-c2cccs2)cc1`, the inhibition constant (Ki) in experiment [1] is 63 nM; in experiment [2] it was 63.1 nM.

Regarding `O=S1(=O)N(Cc2cccc(I)c2)[C@@H](COc2ccccc2)[C@@H](O)[C@H](O)[C@H](COc2ccccc2)N1Cc1cccc(I)c1`, the figures for the Ki in experiment [1] and in experiment [2] were 93 nM and 93.3 nM, respectively.

`CNC(=O)c1cccc(CN2[C@@H](COc3ccccc3)[C@@H](O)[C@H](O)[C@H](COc3ccccc3)N(Cc3cccc(C(=O)NC)c3)S2(=O)=O)c1`: the Ki in experiment [1] was 39 nM; in experiment [2], 38.9 nM.

As to `O=C(CN1[C@@H](COc2ccccc2)[C@@H](O)[C@H](O)[C@H](COc2ccccc2)N(Cc2ccc(-c3cccs3)cc2)S1(=O)=O)Nc1nccs1`, the inhibition constant (Ki) in experiment [1] is 1800 nM; in experiment [2], 1780 nM.

With `CN1[C@@H](COc2ccccc2)[C@@H](O)[C@H](O)[C@H](COc2ccccc2)N(Cc2ccccc2)S1(=O)=O`, the Ki in experiment [1] is 510 nM; in experiment [2], 513 nM.

In the case of `C/C(=N\O)c1cccc(CN2[C@H](COc3ccccc3)[C@H](O)[C@@H](O)[C@@H](COc3ccccc3)N(Cc3cccc(/C(C)=N/O)c3)S2(=O)=O)c1`, the Ki is 3.4 nM in experiment [1] and 3.39 nM in experiment [2].

`O=C1N(Cc2ccccc2)[C@H](COc2ccccc2)[C@H](O)[C@@H](O)[C@@H](COc2ccccc2)N1Cc1ccccc1`: the inhibition constant Ki in experiment [1] was found to be 11 nM.

With `O=S1(=O)N(Cc2ccc(-c3cccs3)cc2)[C@@H](COc2ccccc2)[C@@H](O)[C@H](O)[C@H](COc2ccccc2)N1Cc1cccc(-c2cccs2)c1`, the results for the Ki in experiment [1] and in experiment [2] were 6000 nM and 6030 nM, respectively.

For orientation: Ki means a measure of affinity in units of concentration, obtained from inhibition or displacement.
